Biological target: T1, human NaV1.3 (Homo sapiens, UniProt Q9NY46)
T1 construct: expressed in transfected cells; host or cells: HEK293
Test: FRET assay (EFS, FDSS) on HEK293 cells expressing human NaV1.3 channels
Format: cell-based
Conditions: FRET assay, HEK293 cells expressing human NaV1.3; read-out: IC50 against Nav1.3
Procedure: This screen was used to determine the effects of compounds on human NaV1.3, human Nav1.7, and human Nav1.5 channels, utilising electrical field stimulation (EFS) system in 96-well plate format on FDSS (Hamamatsu Photonics) platform. The change of membrane potential was monitored with FRET dye pair, oxonol (DiSBAC2(3)) and coumarin (CC2-DMPE).
Each HEK293 cells expressing human NaV1.3 channels and HEK293 cells expressing human NaV1.5 channels were grown in T225 flasks, in a 5% CO2 humidified incubator to about 80% confluence. Media composition consisted of Dulbecco's Modified Eagle Medium (high glucose), 10% FCS, 100 units/ml Penicillin, 100 microgram/ml Streptomycin and 500 microgram/ml Geneticine.
Protocol: • Seeded each cell lines (1×10^5 cells/well) into poly-D-lysine coated 96-well plates prior to experimentation. • Incubated at 37° C. in 5% CO2 for 24 hours. • Washed each well with assay buffer (140 mM NaCl, 4.5 mM KCl, 10 mM D-Glucose, 2 mM CaCl2, 1 mM MgCl2, 10 mM HEPES, pH 7.4 adjusted with NaOH) twice. • Added 1st loading solution containing 10 microM CC2-DMPE and 0.06% Pluronic F-127 in assay buffer. • Incubated the plate at room temperature in dark for 1 hour. • Removed 1st loading solution and added 2nd loading solution containing 15 microM DiSBAC2(3), 0.555 mM VABSC-1 and 0.004% Pluronic F-127 in assay buffer. • Placed the plate under the dark at room temperature for 25 minutes. • Added compound solutions into the assay plate. • Set the assay plate in FDSS and placed an EFS device on the plate. • Measured EFS-induced fluorescent response by FDSS.
The data were analyzed and reported as normalized ratios of intensities measured at […]. The process of calculating these ratios was performed as follows:
[formula] This analysis was performed using a computerized specific program designed for FDSS generated data. Fluorescence ratio values were plotted using XLfit to determine an IC50 value for each compound.

T1 sequence (Q9NY46 whole entry): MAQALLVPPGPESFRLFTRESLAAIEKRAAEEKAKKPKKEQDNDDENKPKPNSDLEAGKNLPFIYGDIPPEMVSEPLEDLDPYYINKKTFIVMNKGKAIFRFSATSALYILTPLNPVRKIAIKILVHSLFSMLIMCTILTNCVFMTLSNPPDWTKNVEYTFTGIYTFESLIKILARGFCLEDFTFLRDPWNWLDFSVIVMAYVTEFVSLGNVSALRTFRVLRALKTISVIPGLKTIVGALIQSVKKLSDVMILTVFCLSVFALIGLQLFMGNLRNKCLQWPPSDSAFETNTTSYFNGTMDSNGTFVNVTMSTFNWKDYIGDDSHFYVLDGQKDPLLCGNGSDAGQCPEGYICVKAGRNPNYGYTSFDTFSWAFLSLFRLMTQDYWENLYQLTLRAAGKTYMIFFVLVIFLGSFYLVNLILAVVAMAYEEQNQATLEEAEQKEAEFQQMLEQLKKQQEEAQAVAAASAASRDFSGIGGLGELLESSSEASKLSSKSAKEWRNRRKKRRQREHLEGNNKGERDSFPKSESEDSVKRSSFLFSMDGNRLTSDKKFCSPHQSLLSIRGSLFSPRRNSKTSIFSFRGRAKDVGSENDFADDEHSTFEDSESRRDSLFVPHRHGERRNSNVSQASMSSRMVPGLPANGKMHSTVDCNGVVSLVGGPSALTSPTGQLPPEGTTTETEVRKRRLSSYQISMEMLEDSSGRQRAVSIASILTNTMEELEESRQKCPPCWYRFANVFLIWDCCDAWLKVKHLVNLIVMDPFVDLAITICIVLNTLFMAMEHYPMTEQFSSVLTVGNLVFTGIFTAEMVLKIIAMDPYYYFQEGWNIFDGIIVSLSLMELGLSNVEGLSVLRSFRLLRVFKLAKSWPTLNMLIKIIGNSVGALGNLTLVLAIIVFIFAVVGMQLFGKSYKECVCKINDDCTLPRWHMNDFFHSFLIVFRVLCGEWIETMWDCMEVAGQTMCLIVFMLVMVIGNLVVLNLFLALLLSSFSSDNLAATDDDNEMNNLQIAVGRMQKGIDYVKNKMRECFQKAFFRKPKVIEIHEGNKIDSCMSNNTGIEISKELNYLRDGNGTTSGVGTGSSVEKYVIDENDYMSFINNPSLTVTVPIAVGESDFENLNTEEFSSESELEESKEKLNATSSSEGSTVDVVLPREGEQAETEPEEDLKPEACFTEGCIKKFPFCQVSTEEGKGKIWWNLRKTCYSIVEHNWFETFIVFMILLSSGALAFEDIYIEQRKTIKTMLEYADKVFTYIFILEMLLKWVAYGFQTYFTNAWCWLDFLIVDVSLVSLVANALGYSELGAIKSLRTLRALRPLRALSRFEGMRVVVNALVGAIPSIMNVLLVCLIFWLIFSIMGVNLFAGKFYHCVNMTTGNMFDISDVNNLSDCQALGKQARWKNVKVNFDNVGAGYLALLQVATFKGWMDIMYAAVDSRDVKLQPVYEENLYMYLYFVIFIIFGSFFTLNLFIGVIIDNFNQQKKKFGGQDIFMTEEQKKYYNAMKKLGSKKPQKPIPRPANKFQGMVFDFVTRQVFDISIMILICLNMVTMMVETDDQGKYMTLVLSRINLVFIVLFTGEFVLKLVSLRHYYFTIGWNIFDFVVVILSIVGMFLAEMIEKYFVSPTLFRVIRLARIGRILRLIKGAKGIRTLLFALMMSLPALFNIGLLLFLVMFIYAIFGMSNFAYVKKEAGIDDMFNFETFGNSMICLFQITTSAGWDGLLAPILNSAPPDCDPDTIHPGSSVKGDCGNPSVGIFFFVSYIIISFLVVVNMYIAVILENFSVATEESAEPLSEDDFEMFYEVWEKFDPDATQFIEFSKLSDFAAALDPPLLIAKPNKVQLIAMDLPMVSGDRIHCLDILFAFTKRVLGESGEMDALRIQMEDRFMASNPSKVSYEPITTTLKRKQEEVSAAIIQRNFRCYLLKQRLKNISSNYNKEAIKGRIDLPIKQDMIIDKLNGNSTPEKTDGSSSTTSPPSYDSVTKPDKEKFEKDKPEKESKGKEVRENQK

IC50, < 3 µM:
CC(C)COc1cc(N2CCN(C(=O)Cc3ccc(F)cc3)CC2)ncn1 [Example 119, 2-(4-fluorophenyl)-1-(4-(6-isobutoxypyrimidin-4-yl)piperazin-1-yl)ethanone]
CC(C)COc1cc(N2CCN(C(=O)CS(=O)(=O)c3ccc(Cl)cc3)CC2)ncn1 [Example 121, 2-((4-chlorophenyl)sulfonyl)-1-(4-(6-isobutoxypyrimidin-4-yl)piperazin-1-yl)ethanone]
CC(C)COc1cc(N2CCN(C(=O)COc3ccc4cccnc4c3)CC2)ncn1 [Example 127, 1-(4-(6-isobutoxypyrimidin-4-yl)piperazin-1-yl)-2-(quinolin-7-yloxy)ethanone]
CC(C)COc1cc(N2CCN(C(=O)COc3cccc4ccncc34)CC2)ncn1 [Example 128, 1-(4-(6-isobutoxypyrimidin-4-yl)piperazin-1-yl)-2-(isoquinolin-8-yloxy)ethanone]
CC(C)COc1cc(N2CCN(C(=O)c3cc(-c4ccccc4)nn3C)CC2)ncn1 [Example 134, (4-(6-isobutoxpyrimidin-4-yl)piperazin-1-yl)(1-methyl-3-phenyl-1H-pyrazol-5-yl)methanone]
Cc1c(C(=O)N2CCN(c3cc(OCC(C)C)ncn3)CC2)cnn1-c1ccccc1 [Example 135]
Cc1c(C(=O)N2CCN(c3cc(OCC(C)C)ncn3)CC2)nnn1-c1ccccc1 [Example 136, (4-(6-isobutoxpyrimidin-4-yl)piperazin-1-yl)(5-methyl-1-phenyl-1H-1,2,3-triazol-4-yl)methanone]
O=C(CCOc1ccc(F)cc1)N1CCN(c2cc(OC3CCC3)ncn2)CC1 [Example 140, 1-(4-(6-cylcobutoxypyrimidin-4-yl)piperazin-1-yl)-3-(4-fluorophenoxy)propan-1-one]
CC(C)COc1cc(N2CCN(C(=O)COc3cncc(Cl)c3)CC2)ncn1 [Example 144, 2-((5-chloropyridin-3-yl)oxy)-1-(4-(6-isobutoxypyrimidin-4-yl)piperazin-1-yl)ethanone]
Cc1c(C(=O)N2CCN(c3cc(OCC(F)(F)F)ncn3)CC2)cnn1-c1ccccc1 [Example 148, (5-methyl-1-phenyl-1H-pyrazol-4-yl)(4-(6-(2,2,2-trifluoroethoxy)pyrimidin-4-yl)piperazin-1-yl)methanone]
CC(C)COc1cc(N2CCN(C(=O)[C@@H](C)Oc3ccc(F)cc3)CC2)ncn1 [Example 152, (R)-2-(4-fluorophenoxy)-1-(4-(6-isobutoxypyrimidin-4-yl)piperazin-1-yl)propan-1-one]
O=C(COc1cccc(F)c1)N1CCN(c2cc(OCC(F)(F)F)ncn2)CC1 [Example 155, 2-(3-fluorophenoxy)-1-(4-(6-(2,2,2-trifluoroethoxy)pyrimidin-4-yl)piperazin-1-yl)ethanone]
O=C(CN1CCc2ccccc2C1=O)N1CCN(c2cc(OCC(F)(F)F)ncn2)CC1 [Example 157, 2-(2-oxo-2-(4-(6-(2,2,2-trifluoroethoxy)pyrimidin-4-yl)piperazin-1-yl)ethyl)-3,4-dihydroisoquinolin-1(2H)-one]
CC(C)Oc1cc(N2CCN(C(=O)c3cc(-c4ccccc4)nn3C)CC2)ncn1 [Example 164, (4-(6-isopropoxypyrimidin-4-yl)piperazin-1-yl)(1-methyl-3-phenyl-1H-pyrazol-5-yl)methanone]
CC(C)COc1cc(N2CCN(C(=O)c3cnn(Cc4ccccc4)c3)CC2)ncn1 [Example 171, (1-benzyl-1H-pyrazol-4-yl)(4-(6-isobutoxypyrimidin-4-yl)piperazin-1-yl)methanone]
Cc1nn(-c2ccccc2)nc1C(=O)N1CCN(c2cc(OCC(C)C)ncn2)CC1 [Example 182, (4-(6-isobutoxypyrimidin-4-yl)piperazin-1-yl)(5-methyl-2-phenyl-2H-1,2,3-triazol-4-yl)methanone]
COc1ccccc1-n1cc(C(=O)N2CCN(c3cc(OCC(C)C)ncn3)CC2)cn1 [Example 183, (4-(6-isobutoxypyrimidin-4-yl)piperazin-1-yl)(1-(2-methoxyphenyl)-1H-pyrazol-4-yl)methanone]
CC(C)COc1cc(N2CCN(C(=O)c3cnn(-c4ccccc4)c3N)CC2)ncn1 [Example 184, (5-amino-1-phenyl-1H-pyrazol-4-yl)(4-(6-isobutoxypyrimidin-4-yl)piperazin-1-yl)methanone]
CC(C)COc1cc(N2CCN(C(=O)c3cc(-c4ccccc4)ncn3)CC2)ncn1 [Example 185, (4-(6-isobutoxypyrimidin-4-yl)piperazin-1-yl)(6-phenylpyrimidin-4-yl)methanone]
CC(C)COc1cc(N2CCN(C(=O)c3cc(-c4cccnc4)nn3C)CC2)ncn1 [Example 189, (4-(6-isobutoxypyrimidin-4-yl)piperazin-1-yl)(1-methyl-3-(pyridin-3-yl)-1H-pyrazol-5-yl)methanone]
CC(C)COc1cc(N2CCN(C(=O)c3csc(-c4cccnc4)n3)CC2)ncn1 [Example 190, (4-(6-isobutoxypyrimidin-4-yl)piperazin-1-yl)(2-(pyridin-3-yl)thiazol-4-yl)methanone]
CC(C)COc1cc(N2CCN(C(=O)c3csc(-c4ccccn4)n3)CC2)ncn1 [Example 191, (4-(6-isobutoxypyrimidin-4-yl)piperazin-1-yl)(2-(pyridin-2-yl)thiazol-4-yl)methanone]
CC(C)Oc1cc(N2CCN(C(=O)c3csc(-c4ccccn4)n3)CC2)ncn1 [Example 193, (4-(6-isopropoxypyrimidin-4-yl)piperazin-1-yl)(2-(pyridin-2-yl)thiazol-4-yl)methanone]
Cc1c(C(=O)N2CCN(c3cc(OCC(C)C)ncn3)CC2)nnn1-c1ccc(F)cc1 [Example 202, (1-(4-fluorophenyl)-5-methyl-1H-1,2,3-triazol-4-yl)(4-(6-isobutoxypyrimidin-4-yl)piperazin-1-yl)methanone]
Cc1c(C(=O)N2CCN(c3cc(OC(C)C)ncn3)CC2)nnn1-c1ccc(F)cc1 [Example 203, (1-(4-fluorophenyl)-5-methyl-1H-1,2,3-triazol-4-yl)(4-(6-isopropoxypyrimidin-4-yl)piperazin-1-yl)methanone]
Cc1c(C(=O)N2CCN(c3cc(OC4CCC4)ncn3)CC2)nnn1-c1ccc(F)cc1 [Example 204, (4-(6-cyclobutoxypyrimidin-4-yl)piperazin-1-yl)(1-(4-fluorophenyl)-5-methyl-1H-1,2,3-triazol-4-yl)methanone]
Cc1c(C(=O)N2CCN(c3cc(OCC(F)(F)F)ncn3)CC2)nnn1-c1ccc(F)cc1 [Example 205, (1-(4-fluorophenyl)-5-methyl-1H-1,2,3-triazol-4-yl)(4-(6-(2,2,2-trifluoroethoxy)pyrimidin-4-yl)piperazin-1-yl)methanone]
CC(C)COc1cc(N2CCN(C(=O)c3cn(-c4ccccc4)nn3)CC2)ncn1 [Example 206, (4-(6-isobutoxypyrimidin-4-yl)piperazin-1-yl)(1-phenhyl-1H-1,2,3-triazol-4-yl)methanone]
CC(C)COc1cc(N2CCN(C(=O)c3nn(C)c4ccc(F)cc34)CC2)ncn1 [Example 209, (5-fluoro-1-methyl-1H-indazol-3-yl)(4-(6-isobutoxypyrimidin-4-yl)piperazin-1-yl)methanone]
CC(C)Oc1cc(N2CCN(C(=O)c3nn(C)c4ccc(F)cc34)CC2)ncn1 [Example 210, (5-fluoro-1-methyl-1H-indazol-3-yl)(4-(6-isopropoxypyrimidin-4-yl)piperazin-1-yl)methanone]
CC(C)COc1cc(N2CCN(C(=O)c3ccc(-n4cccn4)nc3)CC2)ncn1 [Example 214, (6-(1H-pyrazol-1-yl)pyridin-3-yl)(4-(6-isobutoxypyrimidin-4-yl)piperazin-1-yl)methanone]
CC(C)COc1cc(N2CCN(C(=O)c3cnn(-c4ccccc4)c3)CC2)ncn1 [Example 215, (4-(6-isobutoxypyrimidin-4-yl)piperazin-1-yl)(1-phenyl-1H-pyrazol-4-yl)methanone]
CCn1nc(C(F)(F)F)cc1C(=O)N1CCN(c2cc(OCC(C)C)ncn2)CC1 [Example 217, (1-ethyl-3-(trifluoromethyl)-1H-pyrazol-5-yl)(4-(6-isobutoxypyrimidin-4-yl)piperazin-1-yl)methanone]
Cc1c(C(=O)N2CCN(c3cc(OC4CCC4)ncn3)CC2)nnn1-c1ccccc1 [Example 219, (4-(6-cyclobutoxypyrimidin-4-yl)piperazin-1-yl)(5-methyl-1-phenyl-1H-1,2,3-triazol-4-yl)methanone]
